Results: patent US20070128217A1 (priority 2003, published 2007)

Experiments:
[1] = test system: rabbit serum obtained by immunizing a rabbit with the SARS-CoV strain Frankfurt 1; type: binding; set-up: Binding of a rabbit serum to linear peptides / Binding of a rabbit serum to looped peptides / Rabbit serum linear peptides / Rabbit serum looped peptides / Binding of a rabbit serum to linear peptides of protein N of SARS-CoV Urbani (Rabbit serum linear peptides) / Binding of a rabbit serum to looped/cyclic peptides of protein N of SARS-CoV Urbani (Rabbit serum looped peptides): unit not given here
[2] = test system: antibodies in sera from SARS patients (sera 1a, 1b, 2, 6, 37, 62, London, SARS-yellow, SARS-green); type: binding, human; set-up: Binding of serum 6 to linear peptides of protein X1 of SARS-CoV Urbani / Binding of serum 37 to linear peptides of protein X1 of SARS-CoV Urbani / Binding of serum 6 to looped/cyclic peptide (PEPSCAN-ELISA) / Binding of serum 37 to looped/cyclic peptide (PEPSCAN-ELISA) / Binding of serum 37 to looped/cyclic peptides of protein X1 of SARS-CoV Urbani / Binding of serum 6 to linear peptides of protein X2 / Binding of serum 37 to linear peptides of protein X2 / Binding of serum 37 to looped/cyclic peptides of protein X2 of SARS-CoV Urbani / Binding of serum 6 to linear peptides of protein M of SARS-CoV Urbani / Binding of serum 37 to linear peptides of protein M of SARS-CoV Urbani / Binding of serum 6 to looped/cyclic peptides of protein M of SARS-CoV Urbani / Binding of serum 37 to looped/cyclic peptides of protein M of SARS-CoV Urbani / Binding of serum 6 to linear peptides of protein X3 of SARS-CoV Urbani / Binding of serum 37 to linear peptides of protein X3 of SARS-CoV Urbani / Binding of serum 37 to looped/cyclic peptides of protein X3 of SARS-CoV Urbani / Binding of serum 6 to linear peptides of protein X4 of SARS-CoV Urbani / Binding of serum 37 to linear peptides of protein X4 of SARS-CoV Urbani / Binding of serum 37 to looped/cyclic peptides of protein X4 of SARS-CoV Urbani / Binding of serum 6 to linear peptides of protein X5 of SARS-CoV Urbani / Binding of serum 37 to linear peptides of protein X5 of SARS-CoV Urbani / Binding of serum 37 to looped/cyclic peptides of protein X5 of SARS-CoV Urbani / Binding of serum 6 to linear peptides of protein N of SARS-CoV Urbani / Binding of serum 37 to linear peptides of protein N of SARS-CoV Urbani / Binding of serum 6 to linear peptide (PEPSCAN-ELISA) / Binding of serum 1a to looped/cyclic peptides of protein N of SARS-CoV Urbani / Binding of serum 1b to looped/cyclic peptides of protein N of SARS-CoV Urbani / Binding of serum 2 to looped/cyclic peptides of protein N of SARS-CoV Urbani / Binding of serum 6 to looped/cyclic peptides of protein N of SARS-CoV Urbani / Binding of serum 37 to looped/cyclic peptides of protein N of SARS-CoV Urbani / Binding of serum 62 to looped/cyclic peptides of protein N of SARS-CoV Urbani / Binding of serum London to looped/cyclic peptides of protein N of SARS-CoV Urbani / Binding of serum SARS-green to looped/cyclic peptides of protein N of SARS-CoV Urbani: unit not given here
[3] = test system: control sera (pooled serum of ten healthy LUMC hospital workers; commercial negative donor pooled serum from the Dutch bloodbank); type: binding, human; set-up: Binding of Control serum LUMC to linear peptides / Binding of Control serum Blood-bank to linear peptides / Binding of Control serum LUMC to looped peptides / Binding of Control Serum Blood-Bank to Looped peptides / Binding of Control serum LUMC to linear peptides of the protein M of SARS-CoV Urbani / Binding of Control serum Blood-bank to linear peptides of the protein M of SARS-CoV Urbani / Binding of Control serum LUMC to looped peptides of the protein M of SARS-CoV Urbani / Binding of Control Serum Blood-Bank to Looped peptides of the protein M of SARS-CoV Urbani: unit not given here

ARCWYLHEGHQTAAF
Rabbit serum linear peptides [1]: 0.3 | Rabbit serum looped peptides [1]: 0.6

AVIIRGHLRMAGHPL
Rabbit serum linear peptides [1]: 0.3 | Rabbit serum looped peptides [1]: 0.6

DNASPASTVHATATI
Binding of a rabbit serum to linear peptides [1]: 0.7 | Binding of a rabbit serum to looped peptides [1]: 0.3

EELKQLLEQWNLVIG
Rabbit serum linear peptides [1]: 0.4 | Rabbit serum looped peptides [1]: 0.4

EGNSPFHPLADNKFA
Rabbit serum linear peptides [1]: 0.7 | Rabbit serum looped peptides [1]: 0.7

FAGTHITMTTVYHIT
Binding of a rabbit serum to linear peptides [1]: 0.6 | Binding of a rabbit serum to looped peptides [1]: 0.4

FICNLLLLFVTIYSH
Binding of serum 1a to linear peptides of protein X1 of SARS-CoV Urbani [2]: 0.6 | Binding of serum 1a to looped/cyclic peptide (PEPSCAN-ELISA) [2]: 0.5 | Binding of serum 1b to linear peptides of protein X1 of SARS-CoV Urbani [2]: 0.6 | Binding of serum 1b to looped/cyclic peptide (PEPSCAN-ELISA) [2]: 0.3 | Binding of serum 2 to linear peptides of protein X1 of SARS-CoV Urbani [2]: 0.6 | Binding of serum 2 to looped/cyclic peptide (PEPSCAN-ELISA) [2]: 0.4 | Binding of serum 6 to linear peptides of protein X1 of SARS-CoV Urbani [2]: 0.4 | Binding of serum 6 to looped/cyclic peptide (PEPSCAN-ELISA) [2]: 0.2 | Binding of serum 37 to linear peptides of protein X1 of SARS-CoV Urbani [2]: 0.5 | Binding of serum 37 to looped/cyclic peptide (PEPSCAN-ELISA) [2]: 0.5 | Binding of serum 62 to linear peptides of protein X1 of SARS-CoV Urbani [2]: 0.5 | Binding of serum 62 to looped/cyclic peptide (PEPSCAN-ELISA) [2]: 0.5 | Binding of serum London to linear peptides of protein X1 of SARS-CoV Urbani [2]: 0.3 | Binding of serum London to looped/cyclic peptide (PEPSCAN-ELISA) [2]: 0.2 | Binding of serum SARS-green to linear peptides of protein X1 of SARS-CoV Urbani [2]: 0.2 | Binding of serum SARS-green to looped/cyclic peptide (PEPSCAN-ELISA) [2]: 0.3 | Binding of serum SARS-yellow to linear peptides of protein X1 of SARS-CoV Urbani [2]: 0.4 | Binding of serum SARS-yellow to looped/cyclic peptide (PEPSCAN-ELISA) [2]: 0.5 | Binding of a rabbit serum to linear peptides [1]: 0.1 | Binding of a rabbit serum to looped peptides [1]: 0.5

GAVIIRGHLRMAGHP
Rabbit serum linear peptides [1]: 0.8 | Rabbit serum looped peptides [1]: 0.5

GFQFIGNLLLLFVTI
Binding of a rabbit serum to linear peptides [1]: 0.9 | Binding of a rabbit serum to looped peptides [1]: 0.5

GTITVEELKQLLEQW
Recognition of the peptide by the rabbit serum [1]: recognized

HLRMAGHPLGRCDIK
Rabbit serum linear peptides [1]: 0.0 | Rabbit serum looped peptides [1]: 0.5

IANACIVGLMWLSYF
Rabbit serum linear peptides [1]: 0.1 | Rabbit serum looped peptides [1]: 0.0

IGAVIIRGHLRMAGH
Rabbit serum linear peptides [1]: 0.3 | Rabbit serum looped peptides [1]: 0.8

IRGHLRMAGHPLGRC
Rabbit serum linear peptides [1]: 1.2 | Rabbit serum looped peptides [1]: 0.4

ITVEELKQLLEQWNL
Recognition of the peptide by the rabbit serum [1]: recognized

KQLLEQWNLVIGFLP
Rabbit serum linear peptides [1]: 0.0 | Rabbit serum looped peptides [1]: 0.1

LHEGHQTAAFRDVLV
Rabbit serum linear peptides [1]: 0.5 | Rabbit serum looped peptides [1]: 0.7

RCWYLHEGHQTAAFR
Rabbit serum linear peptides [1]: 0.9 | Rabbit serum looped peptides [1]: 0.4

RGHLRMAGHPLGRCD
Rabbit serum linear peptides [1]: 0.0 | Rabbit serum looped peptides [1]: 0.3

SPFHPLADNKFALTC
Rabbit serum linear peptides [1]: 0.4 | Rabbit serum looped peptides [1]: 0.5

TLGSITAQPVKIDNA
Binding of a rabbit serum to linear peptides [1]: 0.8 | Binding of a rabbit serum to looped peptides [1]: 0.4

TVEELKQLLEQWNLV
Recognition of the peptide by the rabbit serum [1]: recognized

TVHATATIPLQASLP
Binding of a rabbit serum to linear peptides [1]: 0.4 | Binding of a rabbit serum to looped peptides [1]: 0.5

TYEGNSPFHPLADNK
Rabbit serum linear peptides [1]: 0.7 | Rabbit serum looped peptides [1]: 0.4

VHATATIPLQASLPF
Binding of a rabbit serum to linear peptides [1]: 0.1 | Binding of a rabbit serum to looped peptides [1]: 0.6

VIGAVIIRGHLRMAG
Rabbit serum linear peptides [1]: 1.5 | Rabbit serum looped peptides [1]: 0.6

VIIRGHLRMAGHPLG
Rabbit serum linear peptides [1]: 0.4 | Rabbit serum looped peptides [1]: 0.6

VQQELYSPLFLIVAA
Binding of Control Serum Blood-Bank to Looped peptides [3]: 0.7 | Binding of Control serum Blood-bank to linear peptides [3]: 0.6 | Binding of Control serum LUMC to linear peptides [3]: 0.5 | Binding of Control serum LUMC to looped peptides [3]: 0.6 | Binding of serum 1a to linear peptides of protein X4 of SARS-CoV Urbani [2]: 0.7 | Binding of serum 1a to looped/cyclic peptides of protein X4 of SARS-CoV Urbani [2]: 0.8 | Binding of serum 1b to linear peptides of protein X4 of SARS-CoV Urbani [2]: 0.6 | Binding of serum 1b to looped/cyclic peptides of protein X4 of SARS-CoV Urbani [2]: 0.5 | Binding of serum 2 to linear peptides of protein X4 of SARS-CoV Urbani [2]: 0.6 | Binding of serum 2 to looped/cyclic peptides of protein X4 of SARS-CoV Urbani [2]: 0.7 | Binding of serum 6 to linear peptides of protein X4 of SARS-CoV Urbani [2]: 0.9 | Binding of serum 6 to looped/cyclic peptides of protein X4 of SARS-CoV Urbani [2]: 0.5 | Binding of serum 37 to linear peptides of protein X4 of SARS-CoV Urbani [2]: 0.7 | Binding of serum 37 to looped/cyclic peptides of protein X4 of SARS-CoV Urbani [2]: 0.7 | Binding of serum 62 to linear peptides of protein X4 of SARS-CoV Urbani [2]: 0.7 | Binding of serum 62 to looped/cyclic peptides of protein X4 of SARS-CoV Urbani [2]: 0.7 | Binding of serum London to linear peptides of protein X4 of SARS-CoV Urbani [2]: 0.9 | Binding of serum London to looped/cyclic peptides of protein X4 of SARS-CoV Urbani [2]: 0.3 | Binding of serum SARS-green to linear peptides of protein X4 of SARS-CoV Urbani [2]: 0.6 | Binding of serum SARS-green to looped/cyclic peptides of protein X4 of SARS-CoV Urbani [2]: 0.4 | Binding of serum SARS-yellow to linear peptides of protein X4 of SARS-CoV Urbani [2]: 0.5 | Binding of serum SARS-yellow to looped/cyclic peptides of protein X4 of SARS-CoV Urbani [2]: 0.8 | Recognition of the peptide by sera of SARS-CoV infected individuals, and form (linear, looped/cyclic) in which it is recognized [2]: recognized in looped/cyclic form

VQQELYSPLFLTVAA
Rabbit serum linear peptides [1]: 0.5 | Rabbit serum looped peptides [1]: 0.2

WYLHEGHQTAAFRDV
Rabbit serum linear peptides [1]: 0.3 | Rabbit serum looped peptides [1]: 0.0
